Two molecules from ChEMBL document CHEMBL5260810, “Inhibition of bromodomain-containing protein 9 for the prevention of epigenetically-defined drug resistance” (Bioorg Med Chem Lett, 2017) can be followed below.

In general, IC50 refers to the concentration that gives 50% inhibition. Low readings indicate inhibition by little substance, high ones a need for much substance. Broadly, the Kd is the concentration at which binding is half-saturated. Low values mean a tighter complex, high ones a looser complex. For orientation: inhibition means the change of the read-out against control, counted positive when it falls.

Some results are limits rather than exact numbers.

Chain of Receptor-type tyrosine-protein kinase FLT3 (Homo sapiens) (P36888 whole entry): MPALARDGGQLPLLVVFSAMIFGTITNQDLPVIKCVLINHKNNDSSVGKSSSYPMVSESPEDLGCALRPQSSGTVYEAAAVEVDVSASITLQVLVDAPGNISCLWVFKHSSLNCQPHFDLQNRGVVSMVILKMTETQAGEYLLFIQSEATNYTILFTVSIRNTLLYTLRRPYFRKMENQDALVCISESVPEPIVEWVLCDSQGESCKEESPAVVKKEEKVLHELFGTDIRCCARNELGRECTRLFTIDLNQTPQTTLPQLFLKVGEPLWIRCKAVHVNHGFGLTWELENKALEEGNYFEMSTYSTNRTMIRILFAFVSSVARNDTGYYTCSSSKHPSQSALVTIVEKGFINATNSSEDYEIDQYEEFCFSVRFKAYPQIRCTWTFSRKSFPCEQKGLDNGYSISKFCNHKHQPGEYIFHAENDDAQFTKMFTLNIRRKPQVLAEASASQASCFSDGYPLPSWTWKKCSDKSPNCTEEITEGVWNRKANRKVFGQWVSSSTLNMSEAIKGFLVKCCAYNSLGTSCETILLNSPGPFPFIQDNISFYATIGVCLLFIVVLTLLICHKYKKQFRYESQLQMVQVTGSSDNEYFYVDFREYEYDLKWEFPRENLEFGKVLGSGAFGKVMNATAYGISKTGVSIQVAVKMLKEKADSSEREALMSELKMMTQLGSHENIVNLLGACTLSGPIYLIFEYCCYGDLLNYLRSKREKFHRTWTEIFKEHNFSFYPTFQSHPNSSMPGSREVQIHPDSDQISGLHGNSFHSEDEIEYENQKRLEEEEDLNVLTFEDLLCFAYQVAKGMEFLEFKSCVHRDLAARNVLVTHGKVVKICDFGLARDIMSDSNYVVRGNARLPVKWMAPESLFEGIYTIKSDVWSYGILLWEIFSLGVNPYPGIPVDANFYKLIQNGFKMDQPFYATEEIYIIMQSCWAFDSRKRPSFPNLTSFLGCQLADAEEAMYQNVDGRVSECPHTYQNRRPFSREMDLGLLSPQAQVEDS

The first test deals with MV4-11. Description: Cytotoxicity against human MV4-11 cells measured after 8 days. Particulars: MV4-11, 192 h. It counts as functional, cell-based.
Consider `C/C=C/Cn1cc(-c2cc(OC)c(C(=O)N3CCOCC3)cc2OC)c2cc(C)[nH]c2c1=O`, for which half-maximal inhibition (IC50) required 2 µM.
The molecule `C/C=C/Cn1cc(-c2ccc(C(C)(C)O)cc2OC)c2cc[nH]c2c1=O` showed an IC50 of 8.02 µM.

Test system in another test: not listed separately
The test is described as follows: Cytotoxicity against human KMS-27 cells measured after 8 days. The format is functional, cell-based. Particulars: KMS-27, 192 h.
As for `C/C=C/Cn1cc(-c2cc(OC)c(C(=O)N3CCOCC3)cc2OC)c2cc(C)[nH]c2c1=O`, the midpoint of inhibition, the IC50, lay at 2 µM.
The same measure, in the same setting: under `C/C=C/Cn1cc(-c2ccc(C(C)(C)O)cc2OC)c2cc[nH]c2c1=O` stands 20 µM.

A further test deals with LCLC-103H cell line. The test is described as follows: Cytotoxicity against human LCLC-103H cell line measured after 8 days. It counts as functional, cell-based. The settings on record: 192 h.
`C/C=C/Cn1cc(-c2cc(OC)c(C(=O)N3CCOCC3)cc2OC)c2cc(C)[nH]c2c1=O` yielded an IC50 of 2 µM.
Same read-out and setting: under `C/C=C/Cn1cc(-c2ccc(C(C)(C)O)cc2OC)c2cc[nH]c2c1=O` stands 20 µM.

In another test the test system is NCI-H2347. The test is described as follows: Cytotoxicity against human NCI-H2347 cells measured after 8 days. The settings on record: NCI-H2347, 192 h. The format is functional, cell-based.
On to `C/C=C/Cn1cc(-c2cc(OC)c(C(=O)N3CCOCC3)cc2OC)c2cc(C)[nH]c2c1=O`, for which the IC50 amounted to 2 µM.
On the same count and under the same terms, under `C/C=C/Cn1cc(-c2ccc(C(C)(C)O)cc2OC)c2cc[nH]c2c1=O` stands 20 µM.

Another test deals with NCI-H460. The test is described as follows: Cytotoxicity against human NCI-H460 cells measured after 8 days. It counts as functional, cell-based. Particulars: NCI-H460, 192 h.
In turn, `C/C=C/Cn1cc(-c2cc(OC)c(C(=O)N3CCOCC3)cc2OC)c2cc(C)[nH]c2c1=O` showed an IC50 of 2 µM.
For the molecule `C/C=C/Cn1cc(-c2ccc(C(C)(C)O)cc2OC)c2cc[nH]c2c1=O`, the IC50 is 20 µM.

Test system in a further test: not listed separately
Description: Cytotoxicity against human RERF-LC-OK cells measured after 8 days. It counts as functional, cell-based. Particulars: 192 h.
In turn, `C/C=C/Cn1cc(-c2cc(OC)c(C(=O)N3CCOCC3)cc2OC)c2cc(C)[nH]c2c1=O` returned an IC50 of 2 µM.
On the same count and under the same terms, under `C/C=C/Cn1cc(-c2ccc(C(C)(C)O)cc2OC)c2cc[nH]c2c1=O` stands 20 µM.

In the next test the test system is MC116. The test is described as follows: Cytotoxicity against human MC116 cells measured after 8 days. The format is functional, cell-based. Particulars: MC116, 192 h.
`C/C=C/Cn1cc(-c2cc(OC)c(C(=O)N3CCOCC3)cc2OC)c2cc(C)[nH]c2c1=O` showed an IC50 of 2 µM.
The same measure, in the same setting: the figure for `C/C=C/Cn1cc(-c2ccc(C(C)(C)O)cc2OC)c2cc[nH]c2c1=O` is 4.97 µM.

A further test concerns SUD4. The test is described as follows: Cytotoxicity against human SU-DHL-4 cells measured after 8 days. The format is functional, cell-based. The settings on record: SU-DHL-4, 192 h.
As to `C/C=C/Cn1cc(-c2cc(OC)c(C(=O)N3CCOCC3)cc2OC)c2cc(C)[nH]c2c1=O`, the IC50 is 2 µM.
Same read-out and setting: the figure for `C/C=C/Cn1cc(-c2ccc(C(C)(C)O)cc2OC)c2cc[nH]c2c1=O` is 8.59 µM.

A further test deals with HCC1143. The test is described as follows: Cytotoxicity against human HCC1143 cells measured after 8 days. The format is functional, cell-based. The settings on record: HCC1143, 192 h.
Consider `C/C=C/Cn1cc(-c2cc(OC)c(C(=O)N3CCOCC3)cc2OC)c2cc(C)[nH]c2c1=O`, for which the IC50 worked out at 2 µM.
On the same count and under the same terms, under `C/C=C/Cn1cc(-c2ccc(C(C)(C)O)cc2OC)c2cc[nH]c2c1=O` stands 20 µM.

The next test concerns YMB-1-E. The test is described as follows: Cytotoxicity against human YMB-1-E cells measured after 8 days. The format is functional, cell-based. Particulars: 192 h.
Molecule `C/C=C/Cn1cc(-c2cc(OC)c(C(=O)N3CCOCC3)cc2OC)c2cc(C)[nH]c2c1=O` displayed an IC50 of 2 µM.
Same read-out and setting: under `C/C=C/Cn1cc(-c2ccc(C(C)(C)O)cc2OC)c2cc[nH]c2c1=O` stands 20 µM.

Test system in another test: not listed separately
The test is described as follows: Cytotoxicity against human HCC4011 cells measured after 8 days. The format is functional, cell-based. Particulars: HCC4011, 192 h.
For `C/C=C/Cn1cc(-c2cc(OC)c(C(=O)N3CCOCC3)cc2OC)c2cc(C)[nH]c2c1=O`, the IC50 came out at 2 µM.
Still for that read-out and setting: the figure for `C/C=C/Cn1cc(-c2ccc(C(C)(C)O)cc2OC)c2cc[nH]c2c1=O` is 20 µM.

A further test has as its target T1, ATPase family AAA domain-containing protein 2 (Homo sapiens, UniProt Q6PL18).
T1 sequence (Q6PL18 whole entry): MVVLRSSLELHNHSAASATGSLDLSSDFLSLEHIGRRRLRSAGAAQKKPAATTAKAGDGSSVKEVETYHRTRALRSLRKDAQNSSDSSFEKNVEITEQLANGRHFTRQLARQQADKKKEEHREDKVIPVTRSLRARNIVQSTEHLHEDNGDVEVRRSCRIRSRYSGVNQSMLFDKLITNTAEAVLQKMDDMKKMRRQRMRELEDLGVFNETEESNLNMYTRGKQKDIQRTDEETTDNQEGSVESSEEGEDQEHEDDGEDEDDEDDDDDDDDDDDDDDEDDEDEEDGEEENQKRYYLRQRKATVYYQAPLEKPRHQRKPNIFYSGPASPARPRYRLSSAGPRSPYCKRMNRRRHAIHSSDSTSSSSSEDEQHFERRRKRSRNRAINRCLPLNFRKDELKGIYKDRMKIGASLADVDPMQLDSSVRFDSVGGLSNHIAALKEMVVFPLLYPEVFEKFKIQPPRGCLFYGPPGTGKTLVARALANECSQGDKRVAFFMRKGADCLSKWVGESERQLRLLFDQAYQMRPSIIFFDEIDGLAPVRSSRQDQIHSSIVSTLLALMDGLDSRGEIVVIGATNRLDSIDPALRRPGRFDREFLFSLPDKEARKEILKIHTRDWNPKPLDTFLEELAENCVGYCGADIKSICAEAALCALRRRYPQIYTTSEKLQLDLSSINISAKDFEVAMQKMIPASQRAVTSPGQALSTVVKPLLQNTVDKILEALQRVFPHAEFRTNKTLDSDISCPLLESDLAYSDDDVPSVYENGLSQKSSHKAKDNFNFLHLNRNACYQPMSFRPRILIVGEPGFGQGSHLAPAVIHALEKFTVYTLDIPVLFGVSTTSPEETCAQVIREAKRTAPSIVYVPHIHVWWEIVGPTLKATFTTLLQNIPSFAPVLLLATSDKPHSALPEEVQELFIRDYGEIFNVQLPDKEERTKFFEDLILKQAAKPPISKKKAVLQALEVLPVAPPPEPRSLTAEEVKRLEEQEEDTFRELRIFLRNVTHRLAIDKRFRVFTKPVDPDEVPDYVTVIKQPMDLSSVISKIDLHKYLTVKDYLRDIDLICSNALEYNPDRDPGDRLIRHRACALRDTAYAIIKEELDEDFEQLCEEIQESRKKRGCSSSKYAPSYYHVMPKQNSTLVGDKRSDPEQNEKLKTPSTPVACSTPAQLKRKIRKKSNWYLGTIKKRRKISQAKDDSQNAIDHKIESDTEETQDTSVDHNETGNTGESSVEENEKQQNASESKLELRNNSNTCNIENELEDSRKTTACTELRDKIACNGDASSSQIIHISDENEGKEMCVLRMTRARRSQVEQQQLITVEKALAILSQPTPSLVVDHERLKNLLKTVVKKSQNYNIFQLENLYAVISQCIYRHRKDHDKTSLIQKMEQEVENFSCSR
The test is described as follows: Binding affinity to human partial length ATAD2A (Q981 to R1108 residues) expressed in bacterial expression system by BROMOscan assay.
Settings: not given
As to `C/C=C/Cn1cc(-c2cc(OC)c(C(=O)N3CCOCC3)cc2OC)c2cc(C)[nH]c2c1=O`, the Kd was > 10 µM.
Take `C/C=C/Cn1cc(-c2ccc(C(C)(C)O)cc2OC)c2cc[nH]c2c1=O`: the Kd was > 10 µM.

For a further test, the target named is Bromodomain-containing protein 4 (Homo sapiens, UniProt O60885). Description: Binding affinity to full length BRD4 short isoform (unknown origin) by BROMOscan assay.
Settings: not given
On to `C/C=C/Cn1cc(-c2cc(OC)c(C(=O)N3CCOCC3)cc2OC)c2cc(C)[nH]c2c1=O`, for which the Kd is > 10 µM.
Still for that read-out and setting: the figure for `C/C=C/Cn1cc(-c2ccc(C(C)(C)O)cc2OC)c2cc[nH]c2c1=O` is 0.58 µM.

The next test concerns the target Bromodomain testis-specific protein (Homo sapiens, UniProt Q58F21). Description: Binding affinity to human partial length BRDT bromodomain 1 (N21 to E137 residues) expressed in bacterial expression system by BROMOscan assay.
Settings: not given
For `C/C=C/Cn1cc(-c2cc(OC)c(C(=O)N3CCOCC3)cc2OC)c2cc(C)[nH]c2c1=O`, the Kd is > 10 µM.
The same measure, in the same setting: the figure for `C/C=C/Cn1cc(-c2ccc(C(C)(C)O)cc2OC)c2cc[nH]c2c1=O` is 0.83 µM.

Another test addresses Receptor-type tyrosine-protein kinase FLT3 (Homo sapiens) (UniProt P36888). Description: Inhibition of Flt3 (unknown origin) at 1 uM relative to control.
Settings: not given
For `C/C=C/Cn1cc(-c2cc(OC)c(C(=O)N3CCOCC3)cc2OC)c2cc(C)[nH]c2c1=O`, the inhibition came out at 6%.
Same read-out and setting: the figure for `C/C=C/Cn1cc(-c2ccc(C(C)(C)O)cc2OC)c2cc[nH]c2c1=O` is 15%.

The next test deals with Glycogen synthase kinase-3 beta (Homo sapiens) (UniProt P49841). The test is described as follows: Inhibition of GSK3beta (unknown origin) at 1 uM relative to control.
Chain of Glycogen synthase kinase-3 beta (Homo sapiens) (P49841 whole entry, looked up): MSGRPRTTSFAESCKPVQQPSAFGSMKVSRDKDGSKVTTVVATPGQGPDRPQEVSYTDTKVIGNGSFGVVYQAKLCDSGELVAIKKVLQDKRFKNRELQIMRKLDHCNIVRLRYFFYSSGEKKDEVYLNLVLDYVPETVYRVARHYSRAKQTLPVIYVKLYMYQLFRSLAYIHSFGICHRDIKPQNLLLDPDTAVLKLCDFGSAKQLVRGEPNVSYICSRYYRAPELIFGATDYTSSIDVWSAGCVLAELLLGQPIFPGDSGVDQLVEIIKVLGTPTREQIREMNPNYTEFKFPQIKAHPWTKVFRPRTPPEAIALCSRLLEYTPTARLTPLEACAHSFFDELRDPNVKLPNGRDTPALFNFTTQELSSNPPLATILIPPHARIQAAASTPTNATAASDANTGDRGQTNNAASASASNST
Settings: not given
As for `C/C=C/Cn1cc(-c2cc(OC)c(C(=O)N3CCOCC3)cc2OC)c2cc(C)[nH]c2c1=O`, the inhibition came out at 2.5%.
On the same count and under the same terms, under `C/C=C/Cn1cc(-c2ccc(C(C)(C)O)cc2OC)c2cc[nH]c2c1=O` stands 3.5%.

Another test has as its target T2, Interleukin-1 receptor-associated kinase 4 (Homo sapiens) (UniProt Q9NWZ3).
T2 sequence (whole entry): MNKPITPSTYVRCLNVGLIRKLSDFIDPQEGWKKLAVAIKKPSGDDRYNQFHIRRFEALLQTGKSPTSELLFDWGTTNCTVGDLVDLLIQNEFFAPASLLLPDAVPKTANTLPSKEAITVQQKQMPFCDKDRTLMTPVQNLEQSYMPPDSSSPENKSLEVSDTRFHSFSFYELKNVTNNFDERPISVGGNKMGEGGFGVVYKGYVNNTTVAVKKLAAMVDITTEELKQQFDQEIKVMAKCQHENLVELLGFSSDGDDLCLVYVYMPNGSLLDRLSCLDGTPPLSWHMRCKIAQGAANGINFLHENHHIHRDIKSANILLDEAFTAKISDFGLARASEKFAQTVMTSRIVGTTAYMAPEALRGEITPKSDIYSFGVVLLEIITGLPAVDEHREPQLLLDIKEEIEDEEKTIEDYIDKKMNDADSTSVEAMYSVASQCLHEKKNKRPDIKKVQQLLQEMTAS
The test is described as follows: Inhibition of IRAK4 (unknown origin) at 1 uM relative to control.
Settings: not given
Consider `C/C=C/Cn1cc(-c2cc(OC)c(C(=O)N3CCOCC3)cc2OC)c2cc(C)[nH]c2c1=O`, for which the inhibition was -3.5%.
In the case of `C/C=C/Cn1cc(-c2ccc(C(C)(C)O)cc2OC)c2cc[nH]c2c1=O`, the inhibition was 6%.

The next test deals with Mitogen-activated protein kinase kinase kinase kinase 4 (Homo sapiens) (UniProt O95819). Description: Inhibition of MAP4K4 (unknown origin) at 1 uM relative to control.
Chain of Mitogen-activated protein kinase kinase kinase kinase 4 (Homo sapiens) (O95819 2-1239 limits assumed): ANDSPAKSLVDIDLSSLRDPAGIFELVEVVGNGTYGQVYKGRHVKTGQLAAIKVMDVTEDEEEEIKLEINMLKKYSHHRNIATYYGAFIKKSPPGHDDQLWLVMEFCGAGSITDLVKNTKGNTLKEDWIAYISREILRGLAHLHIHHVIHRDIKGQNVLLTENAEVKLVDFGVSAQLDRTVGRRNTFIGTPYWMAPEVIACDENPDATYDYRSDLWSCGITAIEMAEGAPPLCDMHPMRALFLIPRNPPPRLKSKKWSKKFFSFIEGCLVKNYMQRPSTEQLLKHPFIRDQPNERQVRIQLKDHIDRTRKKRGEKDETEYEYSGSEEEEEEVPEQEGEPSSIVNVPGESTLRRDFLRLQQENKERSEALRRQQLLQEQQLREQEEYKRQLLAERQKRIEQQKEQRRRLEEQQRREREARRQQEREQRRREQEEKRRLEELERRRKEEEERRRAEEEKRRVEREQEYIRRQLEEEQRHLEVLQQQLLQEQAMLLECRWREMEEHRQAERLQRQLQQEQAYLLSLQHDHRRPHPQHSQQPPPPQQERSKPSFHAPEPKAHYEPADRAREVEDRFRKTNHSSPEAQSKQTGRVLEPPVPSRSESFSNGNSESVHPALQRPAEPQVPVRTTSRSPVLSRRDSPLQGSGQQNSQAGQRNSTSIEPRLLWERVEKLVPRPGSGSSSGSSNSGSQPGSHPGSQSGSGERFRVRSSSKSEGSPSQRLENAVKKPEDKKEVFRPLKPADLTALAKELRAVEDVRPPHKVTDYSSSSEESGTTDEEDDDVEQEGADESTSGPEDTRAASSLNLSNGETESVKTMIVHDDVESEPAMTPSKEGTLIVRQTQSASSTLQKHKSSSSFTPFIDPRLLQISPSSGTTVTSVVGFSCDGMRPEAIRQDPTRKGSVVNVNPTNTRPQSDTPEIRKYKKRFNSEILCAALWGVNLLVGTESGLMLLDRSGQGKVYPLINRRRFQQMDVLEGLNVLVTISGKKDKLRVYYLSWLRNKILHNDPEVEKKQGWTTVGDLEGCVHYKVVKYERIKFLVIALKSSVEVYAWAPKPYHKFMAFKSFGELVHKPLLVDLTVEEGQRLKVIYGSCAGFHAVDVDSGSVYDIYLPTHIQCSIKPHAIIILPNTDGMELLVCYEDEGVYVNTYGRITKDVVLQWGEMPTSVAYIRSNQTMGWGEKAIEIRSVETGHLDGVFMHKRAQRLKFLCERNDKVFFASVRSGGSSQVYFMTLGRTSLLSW
Settings: not given
As to `C/C=C/Cn1cc(-c2cc(OC)c(C(=O)N3CCOCC3)cc2OC)c2cc(C)[nH]c2c1=O`, the inhibition came out at 0%.
Still for that read-out and setting: under `C/C=C/Cn1cc(-c2ccc(C(C)(C)O)cc2OC)c2cc[nH]c2c1=O` stands 10.5%.

The next test is filed under the species Rattus norvegicus. The test is described as follows: Displacement of [3H]flunitrazepam from rat brain central BZD at 10 uM after 60 mins by radioligand binding assay relative to control.
Settings: not given
In the case of `C/C=C/Cn1cc(-c2cc(OC)c(C(=O)N3CCOCC3)cc2OC)c2cc(C)[nH]c2c1=O`, the Activity came to 86%.
Still for that read-out and setting: under `C/C=C/Cn1cc(-c2ccc(C(C)(C)O)cc2OC)c2cc[nH]c2c1=O` stands -21%.

A further test deals with Muscarinic acetylcholine receptor M3 (Homo sapiens) (UniProt P20309). The test is described as follows: Displacement of [3H]4-DAMP from human recombinant M3 receptor at 10 uM after 60 mins by scintillation counting analysis relative to control.
Chain of Muscarinic acetylcholine receptor M3 (Homo sapiens) (P20309 whole entry, looked up): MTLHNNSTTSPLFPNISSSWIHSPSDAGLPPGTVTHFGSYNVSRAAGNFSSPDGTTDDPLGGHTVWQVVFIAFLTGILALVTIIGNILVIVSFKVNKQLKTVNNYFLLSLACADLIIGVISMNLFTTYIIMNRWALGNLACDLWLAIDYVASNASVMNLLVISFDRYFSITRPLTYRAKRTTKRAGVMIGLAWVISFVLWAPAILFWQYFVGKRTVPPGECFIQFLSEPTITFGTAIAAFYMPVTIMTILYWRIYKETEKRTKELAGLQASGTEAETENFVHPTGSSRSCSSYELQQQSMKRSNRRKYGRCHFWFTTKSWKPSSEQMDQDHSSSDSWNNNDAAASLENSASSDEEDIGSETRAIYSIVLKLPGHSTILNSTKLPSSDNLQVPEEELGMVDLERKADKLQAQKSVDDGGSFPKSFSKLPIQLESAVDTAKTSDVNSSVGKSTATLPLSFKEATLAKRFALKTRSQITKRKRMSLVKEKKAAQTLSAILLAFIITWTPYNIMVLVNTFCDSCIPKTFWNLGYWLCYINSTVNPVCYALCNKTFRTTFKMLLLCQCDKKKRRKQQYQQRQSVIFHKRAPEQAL
Settings: not given
(In a radioligand displacement assay an active substance lowers the binding of a labelled ligand.)
With `C/C=C/Cn1cc(-c2cc(OC)c(C(=O)N3CCOCC3)cc2OC)c2cc(C)[nH]c2c1=O`, the Activity is 3%.
On the same count and under the same terms, under `C/C=C/Cn1cc(-c2ccc(C(C)(C)O)cc2OC)c2cc[nH]c2c1=O` stands 6%.
